The values below come from patent publication US20220282217A1, “COMPOSITIONS AND METHODS FOR PREPARING T CELL COMPOSITIONS AND USES THEREOF” (priority 2019, published 2022).

Read-outs that look alike come from different tables or passages of the source. Where a SMILES comes first, the peptide text is derived from it.

Experiment [1] deals with 293T cells transduced with GATA3 neoORF, expressing the HLA of interest (Homo sapiens, UniProt P04439). The experiment in a line: Presentation of GATA3 neoantigens: HLA-eluted peptides by targeted MS/MS (PRM) (Table 14). The note with it: GATA3 neoORF transduced 293T cells expressing HLA-A*03:01 protein. The experiment is classed as cell-based. How it is done: (§1) To assess whether antigens could be processed and presented from the larger polypeptide context, peptides eluted from HLA molecules isolated from cells expressing the genes of interest were analyzed by tandem mass spectrometry (MS/MS).
(§2) Between 50 and 700 million of the transduced cells expressing peptides encoded by the GATA3 neoORF sequence were cultured and peptides were eluted from HLA-peptide complexes using an acid wash. Eluted peptides were then analyzed by targeted MS/MS using PRM. Spectral comparison between peptides derived from GATA3 neoORF and corresponding synthetic peptides were performed to confirm each detection.

Experiment [2] has as its system 293T cells transduced with GATA3 neoORF, expressing the HLA of interest. The experiment is described as above. The experiment is classed as cell-based, human. To be noted: GATA3 neoORF transduced 293T cells expressing HLA-A*11:01 protein. How it is done:
as §1, §2

For experiment [3], the target named is T1, HLA-A03.01 (Homo sapiens, UniProt P04439). Kind of experiment: Class I MHC peptide binding affinity (displacement of radiolabeled reference peptide).
For the next experiment, the system named is HLA-A24.02. Kind of experiment: Class I MHC peptide binding stability (pMHC-I dissociation, 125I-labeled light chain). Further details: species or system human.
For experiment [4], the target named is HLA-A02.01 (Homo sapiens, UniProt P04439, D140Y/D185E/D98H/E176V/E277Q/G131W/G231S/I119V/I121R/I166T/I218V/L300P/L318F/N151K/N90K/P208A/P217A/Q86G/Q94H/R138H/R169H/T345S). The experiment in a line: Class I MHC peptide binding affinity (displacement of radiolabeled reference peptide). The method in brief: (§3)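 Peptides compete against a prebound radiolabeled reference on MHCI over 2 days at several concentrations.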

A further experiment addresses Class I MHC. Kind of experiment: Class I MHC peptide binding affinity, any other or unspecified HLA allele named in the row. Also noted: species or system human. To be noted: EGFR T790M peptides; HLA allele B08.02.
Experiment [5] deals with T2, HLA-A02.01 (Homo sapiens, UniProt P04439, D140Y/D185E/D98H/E176V/E277Q/G131W/G231S/I119V/I121R/I166T/I218V/N151K/N90K/P208A/P217A/Q86G/Q94H/R138H/R169H).
T2 construct: made in house; host or cells: E. coli
The experiment in a line: Class I MHC peptide binding stability (pMHC-I dissociation, 125I-labeled light chain).

The target of experiment [6] is T1, HLA-A03.01. Described as above. Further details: made in house; host or cells: E. coli. To be noted: BTK C481S peptide; HLA Allele A03.01.
Another experiment addresses HLA-A11.01 (Homo sapiens, UniProt P04439, A114D/D185E/E176A/F33Y/L180Q/S129P/T187R). Kind of experiment: Class I MHC peptide binding affinity (displacement of radiolabeled reference peptide).
Experiment [7] concerns the target T3, HLA-A01.01 (Homo sapiens, UniProt P04439, A114D/A174V/A182V/D101N/E190D/Q94H/R68K/S129P/V100A/V91M/W191G).
T3 construct: made in house; host or cells: E. coli
Kind of experiment: Class I MHC peptide binding stability (pMHC-I dissociation, 125I-labeled light chain).

For experiment [8], the target named is HLA-A01.01 (Homo sapiens, UniProt P04439, A114D/A174V/A182V/D101N/D185E/E176A/E190D/L180R/Q94H/R68K/S129P/T187R/V100A/V91M/W191G). Kind of experiment: Class I MHC peptide binding affinity (displacement of radiolabeled reference peptide). The method in brief:
as §3

Experiment [9] concerns the target 293T cells transduced with GATA3 neoORF, expressing the HLA of interest (Homo sapiens, UniProt P01889). Kind of experiment: Presentation of GATA3 neoantigens: HLA-eluted peptides by targeted MS/MS (PRM) (Table 14). The experiment is classed as cell-based. The note with it: GATA3 neoORF transduced 293T cells expressing HLA-B*07:02 protein. How it is done:
as §1, §2

For a further experiment, the target named is HLA-B07.02 (Homo sapiens, UniProt P01889). The experiment in a line: Class I MHC peptide binding affinity (displacement of radiolabeled reference peptide). To be noted: Allele B07.02; read-out: Observed Affinity (IC50; (nM)).
The next experiment relates to CD8+ T cells. The experiment in a line: Ex vivo induction of antigen-specific CD8 T cells (FLT3L-treated PBMCs), MHC tetramer/multimer readout. The experiment is classed as cell-based, human. Further details: key to Epitope prefixed with '*': positive CD8+ T cell response: The epitopes that are prefixed with ‘*’, were shown to induce positive CD8+ T cell response in either one or both the donors; key to Immunogenicity (#donors/2): positive CD8+ T cell response in either one or both the donors (marked as 1 or 2 in column 6 respectively); positive CD8+ T cell response in either one or both the donors (marked as 1 or 2 in column 6 respectively). To be noted: HLA-A02:01. How it is done:
Step 1: Plate 5 million PBMCs (or cells of interest) in each well of 24 well plate with FLT3L in 2 mL AIM V media Step 2: Peptide loading and maturation—in AIMV 1. Mix peptide pool of interest (except for no peptide condition) with PBMCs (or cells of interest) in respective wells.
3. Mix Maturation cocktail (including TNF-α, IL-1β, PGE1, and IL-7) to each well after incubation. Step 3: Add human serum to each well at a final concentration of 10% by volume and mix. Step 4: Replace the media with fresh RPMI+10% HS media supplemented with IL7+IL15. Step 5: Replace the media with fresh 20/80 media supplemented with IL7+IL15 during the period of incubation every 1-6 days. Step 6: Plate 5 million PBMCs (or cells of interest) in each well of new 6-well plate with FLT3L in 2 ml AIM V media Step 7: Peptide loading and maturation for re-stimulation—(new plates) 1. Mix peptide pool of interest (except for no peptide condition) with PBMCs (or cells of interest) in respective wells
1. […]
MHC tetramers are purchased or manufactured on-site according to methods known by one of ordinary skill, and are used to measure peptide-specific T cell expansion in the immunogenicity assays. […] Cells are acquired on a LSR Fortessa (Becton Dickinson) instrument, and are analyzed by use of FlowJo software (Becton Dickinson). […]

[10] abbreviates: allele A03.01, read-out: Observed Affinity (IC50, (nM)).
[11] abbreviates: BTK C481S peptide, HLA Allele A01.01.
Where [12] appears, read: Observed Affinity (IC50, (nM)), allele A01.01.

Regarding `CC[C@H](C)[C@H](NC(=O)[C@@H](N)CCCCN)C(=O)N[C@@H](CCSC)C(=O)N[C@@H](Cc1ccccc1)C(=O)N[C@@H](C)C(=O)N[C@H](C(=O)N[C@@H](CC(C)C)C(=O)N[C@@H](CCC(N)=O)C(=O)N[C@@H](CCCNC(=N)N)C(=O)O)[C@@H](C)O` (H-KIMFATLQR-OH; N-terminus and C-terminus assumed), the “detected by mass spectrometry (peptide eluted from HLA-peptide complexes)” value (from here on “detected by mass spectrometry”) in experiment [1] and in [2] was “detected” in each case. Moreover, the IC50 at HLA-A03.01 [3] (setting [10]) turned out to be 2.5 nM.

Turning to `CC[C@H](C)[C@H](NC(=O)[C@H](CC(C)C)NC(=O)[C@@H](N)CCC(N)=O)C(=O)N[C@@H](CCSC)C(=O)N[C@@H](CCC(N)=O)C(=O)N[C@@H](CC(C)C)C(=O)N[C@@H](CCSC)C(=O)N1CCC[C@H]1C(=O)N[C@@H](Cc1ccccc1)C(=O)O`, the “Stability (half-life (hr.))” value with HLA-A24.02 (EGFR T790M peptides, HLA allele A24.02) was 22.12 min; on HLA-A02.01 [5] (EGFR T790M peptides, HLA allele A02.01) it was 20.44 min. Also, the “Stability (T1/2 (h))” value in the experiment on HLA-A24.02 (allele A24.02) came to 0.4 h; on HLA-A02.01 [5] (allele A02.01), 0.3 h. Besides, the Kd came out at 0.193 µM on HLA-A02.01 [4] (EGFR T790M peptides, HLA allele A02.01, read-out: Affinity) and 5.59 µM at Class I MHC. Moreover, at HLA-A02.01 [4] (allele A02.01, read-out: Observed Affinity (IC50, (nM))), the IC50 was determined as 227 nM.

Regarding `CSCC[C@H](N)C(=O)N[C@@H](C)C(=O)N[C@@H](CC(N)=O)C(=O)NCC(=O)N[C@@H](CO)C(=O)N[C@@H](CC(C)C)C(=O)N[C@@H](CC(C)C)C(=O)N[C@@H](CC(N)=O)C(=O)N[C@@H](Cc1ccc(O)cc1)C(=O)O`, the results for the “Stability (half-life (hr.))” value on HLA-A03.01 [6] and at HLA-A01.01 [7] (setting [11]) were 14.3 min and 12.98 min, respectively. The IC50 at HLA-A11.01 worked out at 0.536 µM; on HLA-A03.01 [3] (Affinity (nM), BTK C481S peptide, HLA Allele A03.01) it was 35.6 nM; at HLA-A03.01 [3] (Observed Affinity (IC50, (nM)), allele A03.01) it was 35.6 nM; on HLA-A01.01 [8] (Affinity (nM), BTK C481S peptide, HLA Allele A01.01), 439 nM; on HLA-A01.01 [8] (setting [12]), 439 nM.

For `CSCC[C@H](NC(=O)[C@H](Cc1ccc(O)cc1)NC(=O)CNC(=O)[C@H](CC(=O)O)NC(=O)[C@H](CCCNC(=N)N)NC(=O)[C@H](CCCCN)NC(=O)[C@@H]1CCCN1C(=O)[C@@H](N)CCCCN)C(=O)N[C@@H](Cc1ccccc1)C(=O)N[C@@H](CC(C)C)C(=O)O` (H-KPKRDGYMFL-OH; N-terminus and C-terminus assumed), the “detected by mass spectrometry” value in experiment [9] is given as “detected”. The IC50 at HLA-B07.02 is 98.1 nM.

On to `CSCC[C@H](NC(=O)[C@H](Cc1ccc(O)cc1)NC(=O)CNC(=O)[C@H](CC(=O)O)NC(=O)[C@H](CCCNC(=N)N)NC(=O)[C@H](CCCCN)NC(=O)[C@@H]1CCCN1C(=O)[C@@H](N)CCCCN)C(=O)N[C@@H](Cc1ccccc1)C(=O)O` (H-KPKRDGYMF-OH; N-terminus and C-terminus assumed), for which the “detected by mass spectrometry” value in experiment [9] is recorded as “detected”. Also, the IC50 on HLA-B07.02 amounted to 28.2 nM.

As to `CC[C@H](C)[C@H](NC(=O)[C@H](CC(C)C)NC(=O)[C@H](CCC(N)=O)NC(=O)[C@@H](NC(=O)[C@@H](NC(=O)[C@H](CO)NC(=O)[C@@H](NC(=O)[C@@H](N)CC(C)C)[C@@H](C)O)[C@@H](C)O)C(C)C)C(=O)N[C@@H](CCSC)C(=O)O` (H-LTSTVQLIM-OH; N-terminus and C-terminus assumed), the “Stability (half-life (hr.))” value on HLA-A01.01 [7] (EGFR T790M peptides, HLA allele A01.01) was found to be 6.222 min. At HLA-A01.01 [8], the Kd came out at 2.89 µM. Also, on HLA-A01.01 [8] (setting [12]), the IC50 came out at 2890 nM.

As to `CSCC[C@H](NC(=O)[C@@H](N)Cc1ccc(O)cc1)C(=O)N[C@@H](C)C(=O)N[C@@H](CC(N)=O)C(=O)NCC(=O)N[C@@H](CO)C(=O)N[C@@H](CC(C)C)C(=O)N[C@@H](CC(C)C)C(=O)N[C@@H](CC(N)=O)C(=O)N[C@@H](Cc1ccc(O)cc1)C(=O)O` (H-YMANGSLLNY-OH; N-terminus and C-terminus assumed), the “Stability (half-life (hr.))” value at HLA-A03.01 [6] was 16.75 min; on HLA-A01.01 [7] (setting [11]), 51.97 min. Further, the IC50 came to 0.974 µM on HLA-A11.01 (BTK C481S peptide, HLA Allele A11.01, read-out: Affinity); 95.9 nM on HLA-A03.01 [3] (BTK C481S peptide, HLA Allele A03.01, read-out: Affinity); 95.9 nM on HLA-A03.01 [3] (setting [10]); 13.2 nM on HLA-A01.01 [8] (BTK C481S peptide, HLA Allele A01.01, read-out: Affinity); 13.2 nM at HLA-A01.01 [8] (allele A01.01, read-out: Observed Affinity (IC50, (nM))).

For the compound VLDCCISLL, the “Epitope prefixed with '*': positive CD8+ T cell response” value with CD8+ T cells (in either one or both the donors) is recorded as “*VLDCCISLL”. In the experiment with CD8+ T cells (positive CD8+ T cell response, number of donors out of 2), the “Immunogenicity (#donors/2)” value is listed as 1.
